Laboratory results reported in ChEMBL document CHEMBL5291721, “A preclinical secondary pharmacology resource illuminates target-adverse drug reaction associations of marketed drugs” (Nat Commun, 2023).

Legend:
Prothrombin = Prothrombin (Homo sapiens, UniProt P00734); format: functional
D(3) dopamine receptor = D(3) dopamine receptor (Homo sapiens, UniProt P35462)
[1] = target: T1, Alpha-1A adrenergic receptor (Homo sapiens, UniProt P35348); format: functional, cell-based
T1 sequence (P35348 whole entry): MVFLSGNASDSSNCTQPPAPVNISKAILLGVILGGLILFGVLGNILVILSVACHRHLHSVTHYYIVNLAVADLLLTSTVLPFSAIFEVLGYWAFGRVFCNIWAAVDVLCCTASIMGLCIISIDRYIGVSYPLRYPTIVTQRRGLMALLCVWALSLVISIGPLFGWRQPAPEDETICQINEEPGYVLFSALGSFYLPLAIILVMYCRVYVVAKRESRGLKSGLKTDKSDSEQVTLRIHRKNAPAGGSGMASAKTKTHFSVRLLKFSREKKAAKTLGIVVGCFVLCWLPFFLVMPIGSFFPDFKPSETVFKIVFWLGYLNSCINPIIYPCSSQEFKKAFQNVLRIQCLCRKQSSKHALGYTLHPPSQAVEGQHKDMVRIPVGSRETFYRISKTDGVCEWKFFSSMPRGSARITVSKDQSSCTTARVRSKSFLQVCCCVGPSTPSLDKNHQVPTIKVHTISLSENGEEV

[2] = target: Vascular endothelial growth factor receptor 2 (Homo sapiens, UniProt P35968); format: functional
Progesterone receptor = target: T2, Progesterone receptor (Homo sapiens, UniProt P06401)
T2 sequence (P06401 whole entry): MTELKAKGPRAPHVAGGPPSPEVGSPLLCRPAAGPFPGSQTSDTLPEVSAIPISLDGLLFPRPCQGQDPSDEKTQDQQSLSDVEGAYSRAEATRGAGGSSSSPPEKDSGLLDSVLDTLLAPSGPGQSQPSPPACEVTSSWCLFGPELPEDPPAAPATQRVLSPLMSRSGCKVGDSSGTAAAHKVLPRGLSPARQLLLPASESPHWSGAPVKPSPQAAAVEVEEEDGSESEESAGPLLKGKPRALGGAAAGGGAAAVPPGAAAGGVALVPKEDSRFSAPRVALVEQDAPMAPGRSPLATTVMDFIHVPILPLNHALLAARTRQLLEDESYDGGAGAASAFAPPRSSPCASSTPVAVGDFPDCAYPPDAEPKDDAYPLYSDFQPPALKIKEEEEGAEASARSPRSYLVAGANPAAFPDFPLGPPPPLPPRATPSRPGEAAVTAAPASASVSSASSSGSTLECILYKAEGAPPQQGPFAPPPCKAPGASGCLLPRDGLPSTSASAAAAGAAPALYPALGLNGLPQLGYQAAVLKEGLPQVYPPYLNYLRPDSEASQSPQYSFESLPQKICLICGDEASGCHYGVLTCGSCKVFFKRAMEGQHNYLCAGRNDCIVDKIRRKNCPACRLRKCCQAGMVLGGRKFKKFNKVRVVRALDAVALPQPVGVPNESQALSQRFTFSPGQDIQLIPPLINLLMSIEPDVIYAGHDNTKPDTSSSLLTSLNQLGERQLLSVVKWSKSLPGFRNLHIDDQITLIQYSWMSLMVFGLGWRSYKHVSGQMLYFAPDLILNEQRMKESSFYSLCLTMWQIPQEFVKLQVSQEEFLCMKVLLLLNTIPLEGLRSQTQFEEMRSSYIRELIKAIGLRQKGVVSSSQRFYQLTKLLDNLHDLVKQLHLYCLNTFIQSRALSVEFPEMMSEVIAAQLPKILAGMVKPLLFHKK

D(1A) dopamine receptor = D(1A) dopamine receptor (Homo sapiens, UniProt P21728)
Cannabinoid receptor 1 = Cannabinoid receptor 1 (Homo sapiens, UniProt P21554); format: functional, cell-based
[3] = target: T3, Neuropeptide Y receptor type 1 (Homo sapiens, UniProt P25929)
T3 sequence (P25929 whole entry): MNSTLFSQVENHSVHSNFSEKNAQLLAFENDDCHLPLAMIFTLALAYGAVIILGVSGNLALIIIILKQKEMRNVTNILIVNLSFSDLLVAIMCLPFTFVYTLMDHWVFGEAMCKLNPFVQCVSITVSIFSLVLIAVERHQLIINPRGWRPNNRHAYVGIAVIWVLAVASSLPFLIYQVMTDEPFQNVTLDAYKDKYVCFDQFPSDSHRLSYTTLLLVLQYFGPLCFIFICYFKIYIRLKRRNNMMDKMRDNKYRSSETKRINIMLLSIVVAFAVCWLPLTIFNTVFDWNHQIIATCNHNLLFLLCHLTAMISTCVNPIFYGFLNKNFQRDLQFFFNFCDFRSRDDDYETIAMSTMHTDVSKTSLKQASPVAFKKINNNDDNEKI

[4] = target: T1, Alpha-1A adrenergic receptor; format: functional, cell-based; remark: listed apart in the source
[5] = target: T1, Alpha-1A adrenergic receptor
Thromboxane A2 receptor = target: T4, Thromboxane A2 receptor (Homo sapiens, UniProt P21731)
T4 sequence (P21731 whole entry): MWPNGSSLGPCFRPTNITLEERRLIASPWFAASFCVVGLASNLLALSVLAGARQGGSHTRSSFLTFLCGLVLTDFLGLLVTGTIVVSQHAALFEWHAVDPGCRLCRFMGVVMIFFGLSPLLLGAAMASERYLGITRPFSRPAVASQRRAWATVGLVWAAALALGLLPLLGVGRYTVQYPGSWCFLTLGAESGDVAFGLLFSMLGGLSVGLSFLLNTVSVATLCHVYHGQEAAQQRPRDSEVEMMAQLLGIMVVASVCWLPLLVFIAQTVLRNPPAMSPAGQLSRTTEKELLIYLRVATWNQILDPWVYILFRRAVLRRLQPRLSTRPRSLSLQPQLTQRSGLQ

[6] = target: Gamma-aminobutyric acid receptor subunit alpha-1 (Rattus norvegicus, UniProt P62813)
Histamine H1 receptor = Histamine H1 receptor (Homo sapiens, UniProt P35367)
Note: assay procedure not described here.

Vascular endothelial growth factor receptor 2, sequence (P35968 whole entry): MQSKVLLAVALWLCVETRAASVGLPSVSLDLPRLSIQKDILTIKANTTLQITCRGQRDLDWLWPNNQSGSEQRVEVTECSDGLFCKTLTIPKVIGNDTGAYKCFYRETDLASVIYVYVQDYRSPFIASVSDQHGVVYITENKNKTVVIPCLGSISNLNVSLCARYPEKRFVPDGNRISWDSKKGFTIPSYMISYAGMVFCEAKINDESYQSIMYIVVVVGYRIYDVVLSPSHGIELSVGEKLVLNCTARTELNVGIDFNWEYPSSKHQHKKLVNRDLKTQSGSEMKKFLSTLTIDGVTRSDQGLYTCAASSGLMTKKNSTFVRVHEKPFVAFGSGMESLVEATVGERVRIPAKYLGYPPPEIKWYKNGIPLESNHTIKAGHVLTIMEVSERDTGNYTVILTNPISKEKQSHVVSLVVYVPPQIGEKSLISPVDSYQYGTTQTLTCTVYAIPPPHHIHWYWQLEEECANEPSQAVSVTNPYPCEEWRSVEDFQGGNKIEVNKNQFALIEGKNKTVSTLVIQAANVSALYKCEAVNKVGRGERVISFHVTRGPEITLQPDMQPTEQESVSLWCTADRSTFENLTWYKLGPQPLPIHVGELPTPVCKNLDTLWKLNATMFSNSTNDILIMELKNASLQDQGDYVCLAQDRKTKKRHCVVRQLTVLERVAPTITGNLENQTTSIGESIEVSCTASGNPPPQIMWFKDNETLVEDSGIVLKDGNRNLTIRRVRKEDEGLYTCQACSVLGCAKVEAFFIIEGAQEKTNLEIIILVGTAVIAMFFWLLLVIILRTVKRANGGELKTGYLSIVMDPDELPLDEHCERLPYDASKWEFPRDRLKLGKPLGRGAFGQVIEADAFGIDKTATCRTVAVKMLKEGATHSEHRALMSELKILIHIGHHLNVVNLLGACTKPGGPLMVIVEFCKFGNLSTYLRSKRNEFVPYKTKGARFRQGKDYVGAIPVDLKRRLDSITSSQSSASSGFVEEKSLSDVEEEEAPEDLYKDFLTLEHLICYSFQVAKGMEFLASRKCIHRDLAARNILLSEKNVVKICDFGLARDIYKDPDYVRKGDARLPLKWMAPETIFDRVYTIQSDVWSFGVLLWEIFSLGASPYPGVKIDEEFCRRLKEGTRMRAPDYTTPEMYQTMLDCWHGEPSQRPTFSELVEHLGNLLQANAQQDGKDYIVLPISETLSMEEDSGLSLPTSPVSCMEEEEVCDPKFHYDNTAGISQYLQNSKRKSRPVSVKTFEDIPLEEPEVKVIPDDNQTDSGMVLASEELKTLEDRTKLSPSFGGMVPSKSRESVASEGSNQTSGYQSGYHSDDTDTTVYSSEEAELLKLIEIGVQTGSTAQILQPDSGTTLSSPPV
Gamma-aminobutyric acid receptor subunit alpha-1, sequence (P62813 whole entry): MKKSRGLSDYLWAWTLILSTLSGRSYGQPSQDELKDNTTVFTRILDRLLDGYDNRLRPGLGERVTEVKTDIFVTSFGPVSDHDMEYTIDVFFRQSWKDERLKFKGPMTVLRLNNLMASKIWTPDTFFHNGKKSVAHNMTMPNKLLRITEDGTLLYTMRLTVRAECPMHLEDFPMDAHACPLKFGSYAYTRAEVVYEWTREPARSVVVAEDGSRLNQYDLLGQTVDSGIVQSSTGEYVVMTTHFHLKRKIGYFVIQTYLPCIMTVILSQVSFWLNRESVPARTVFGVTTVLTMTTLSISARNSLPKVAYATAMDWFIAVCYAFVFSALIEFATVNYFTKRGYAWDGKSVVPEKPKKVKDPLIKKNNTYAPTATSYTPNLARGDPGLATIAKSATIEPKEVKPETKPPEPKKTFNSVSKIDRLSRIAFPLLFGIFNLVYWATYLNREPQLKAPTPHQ
D(3) dopamine receptor, sequence (P35462 whole entry): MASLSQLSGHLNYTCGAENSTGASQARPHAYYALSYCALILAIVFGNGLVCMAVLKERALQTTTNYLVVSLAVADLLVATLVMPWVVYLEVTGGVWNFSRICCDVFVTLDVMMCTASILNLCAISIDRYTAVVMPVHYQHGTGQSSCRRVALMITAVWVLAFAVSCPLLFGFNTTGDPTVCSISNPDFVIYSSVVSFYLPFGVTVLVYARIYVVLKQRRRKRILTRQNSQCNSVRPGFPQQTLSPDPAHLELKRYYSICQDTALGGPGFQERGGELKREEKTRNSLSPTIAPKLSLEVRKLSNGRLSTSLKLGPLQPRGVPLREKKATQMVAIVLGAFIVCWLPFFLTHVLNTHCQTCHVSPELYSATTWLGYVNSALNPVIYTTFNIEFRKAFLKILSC
D(1A) dopamine receptor, sequence (P21728 whole entry): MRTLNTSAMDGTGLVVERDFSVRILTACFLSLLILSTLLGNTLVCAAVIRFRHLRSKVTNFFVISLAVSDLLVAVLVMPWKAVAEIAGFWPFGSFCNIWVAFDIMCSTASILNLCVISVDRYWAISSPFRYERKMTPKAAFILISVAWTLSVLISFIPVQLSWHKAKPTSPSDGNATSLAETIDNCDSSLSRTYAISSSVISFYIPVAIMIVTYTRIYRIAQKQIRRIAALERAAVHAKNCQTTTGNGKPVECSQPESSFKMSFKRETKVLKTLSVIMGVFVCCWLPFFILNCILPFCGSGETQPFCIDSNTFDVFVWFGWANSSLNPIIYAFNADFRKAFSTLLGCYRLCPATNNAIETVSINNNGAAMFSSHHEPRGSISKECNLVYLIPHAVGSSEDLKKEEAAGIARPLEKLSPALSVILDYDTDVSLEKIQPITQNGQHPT
Cannabinoid receptor 1, sequence (P21554 whole entry): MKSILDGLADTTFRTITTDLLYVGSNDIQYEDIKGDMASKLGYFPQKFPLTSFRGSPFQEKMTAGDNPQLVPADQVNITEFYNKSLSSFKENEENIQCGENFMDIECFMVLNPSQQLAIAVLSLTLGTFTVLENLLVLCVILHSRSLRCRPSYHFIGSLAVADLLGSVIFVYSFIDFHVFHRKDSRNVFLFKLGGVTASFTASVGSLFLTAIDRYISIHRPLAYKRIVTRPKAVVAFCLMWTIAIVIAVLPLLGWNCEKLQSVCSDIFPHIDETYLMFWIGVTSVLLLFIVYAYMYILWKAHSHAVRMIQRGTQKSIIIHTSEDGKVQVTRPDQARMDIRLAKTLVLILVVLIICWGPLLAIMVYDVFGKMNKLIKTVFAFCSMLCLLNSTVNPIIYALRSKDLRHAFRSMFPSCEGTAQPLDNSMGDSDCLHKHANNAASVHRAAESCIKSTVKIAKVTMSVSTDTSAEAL
Histamine H1 receptor, sequence (P35367 whole entry): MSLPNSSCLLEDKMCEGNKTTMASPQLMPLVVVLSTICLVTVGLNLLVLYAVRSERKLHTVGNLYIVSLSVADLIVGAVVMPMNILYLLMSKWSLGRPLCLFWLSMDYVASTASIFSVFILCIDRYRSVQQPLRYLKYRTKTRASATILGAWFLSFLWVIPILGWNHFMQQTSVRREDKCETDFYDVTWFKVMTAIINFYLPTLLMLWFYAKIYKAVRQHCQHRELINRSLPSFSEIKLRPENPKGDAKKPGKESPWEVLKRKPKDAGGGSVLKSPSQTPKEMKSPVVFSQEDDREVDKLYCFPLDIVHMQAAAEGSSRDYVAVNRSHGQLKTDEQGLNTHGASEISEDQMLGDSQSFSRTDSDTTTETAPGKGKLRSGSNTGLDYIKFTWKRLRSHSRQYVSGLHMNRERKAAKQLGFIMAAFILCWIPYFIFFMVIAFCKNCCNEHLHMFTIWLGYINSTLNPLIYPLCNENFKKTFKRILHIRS

| Structure (SMILES) | AC50 (Prothrombin) [µM] | AC50 (D(3) dopamine receptor) [µM] | AC50 [1] [µM] | AC50 [2] [µM] | AC50 (Progesterone receptor) [µM] | AC50 (D(1A) dopamine receptor) [µM] | AC50 (Cannabinoid receptor 1) [µM] | AC50 [3] [µM] | AC50 [4] [µM] | AC50 [5] [µM] | AC50 (Thromboxane A2 receptor) [µM] | AC50 [6] [µM] | AC50 (Histamine H1 receptor) [µM] |
| --- | --- | --- | --- | --- | --- | --- | --- | --- | --- | --- | --- | --- | --- |
| Sc1ncnc2nc[nH]c12 [MERCAPTOPURINE ANHYDROUS] | > 30 | > 30 | > 30 | > 30 | > 30 | > 30 |  |  |  |  |  |  |  |
| Cc1cc(O)cc(C)c1Cl [CHLOROXYLENOL] | > 30 | > 30 |  | > 30 | > 30 | > 30 |  |  |  |  |  |  |  |
| CCOC(=O)[C@H](CCc1ccccc1)N[C@@H](C)C(=O)N1CCC[C@H]1C(=O)O |  |  |  |  |  |  | > 30 | > 30 | > 30 | > 10 | > 30 | > 10 |  |
| O=C1c2ccccc2C(=O)C1C(=O)C(c1ccccc1)c1ccccc1 [DIPHENADIONE] | > 30 | > 30 | > 3 | > 30 | > 30 | > 30 |  |  |  |  |  |  |  |
| CN(C)CCCN1c2ccccc2CCc2ccc(Cl)cc21 [CLOMIPRAMINE] |  | 0.0393 | 0.0154 |  |  |  |  |  | 1.4 | 0.0445 |  | > 10 |  |
| CN1C(=O)CC(C)(c2ccccc2)C1=O (centres undefined) [METHSUXIMIDE] |  |  |  |  |  |  |  | > 10 |  | > 30 | > 10 | > 10 | > 10 |
| NC(N)=Nc1nc(CSCCC(N)=NS(N)(=O)=O)cs1 [FAMOTIDINE] |  |  |  |  |  |  | > 30 | > 30 | > 30 | > 10 | > 30 | > 10 |  |
| CC(N)Cc1ccccc1 (centres undefined) [AMPHETAMINE] |  |  |  |  |  |  | > 30 | > 30 | > 30 | > 10 | > 30 | > 10 |  |
| CCc1nn(CCCN2CCN(c3cccc(Cl)c3)CC2)c(=O)n1CCOc1ccccc1 [NEFAZODONE] |  |  |  |  |  |  | > 30 | > 30 |  | 0.833 | 23.9 | > 10 | 0.41 |
| O=C1[C@H](CC[C@H](O)c2ccc(F)cc2)[C@@H](c2ccc(O)cc2)N1c1ccc(F)cc1 [EZETIMIBE] | > 30 | > 30 |  | > 30 | 24.6 | 29.4 |  |  |  |  |  |  |  |
| CCC[C@@H]1C[C@@H](C(=O)N[C@@H]([C@H]2O[C@H](SC)[C@H](O)[C@@H](O)[C@H]2O)[C@H](C)Cl)N(C)C1 [CLINDAMYCIN] |  |  |  |  |  |  | > 30 | > 30 | > 30 | 3.42 | > 30 | > 10 |  |
| CN1CCCC(CN2c3ccccc3Sc3ccccc32)C1 (centres undefined) [MEPAZINE] | > 30 |  | 0.391 | > 30 | > 30 | 9.78 |  |  |  |  |  |  |  |
| CNC(=O)c1cc(Oc2ccc(NC(=O)Nc3ccc(Cl)c(C(F)(F)F)c3)cc2)ccn1 [SORAFENIB] |  |  |  |  |  |  | > 30 | > 30 | 15 | > 10 | 16.3 | > 30 | > 30 |
| C#C[C@]1(O)CC[C@H]2[C@@H]3CCC4=CC(=O)CC[C@@H]4[C@H]3CC[C@@]21CC [LEVONORGESTREL] | > 30 | > 30 | > 30 | > 30 |  | > 30 |  |  |  |  |  |  |  |
| CC(C(=O)O)c1ccc(C(=O)c2cccs2)cc1 (centres undefined) [SUPROFEN] |  |  |  |  |  |  |  | > 10 |  | > 10 | > 10 | > 10 | > 10 |
| C[C@@H]1O[C@@H]1P(=O)(O)O [FOSFOMYCIN] |  |  |  |  |  |  |  | > 10 |  | > 10 | > 10 | > 10 | > 10 |
| COC(=O)N[C@H](C(=O)N[C@@H](Cc1ccccc1)[C@@H](O)CN(Cc1ccc(-c2ccccn2)cc1)NC(=O)[C@@H](NC(=O)OC)C(C)(C)C)C(C)(C)C [ATAZANAVIR] |  |  |  |  |  |  |  | > 30 |  | > 10 | > 30 | > 10 | > 10 |
| C[N+](C)(C)CCCCCCCCCC[N+](C)(C)C [DECAMETHONIUM] | > 30 | > 30 | > 30 | > 30 |  | > 30 |  |  |  |  |  |  |  |
| CO/N=C(\C(=O)N[C@@H]1C(=O)N2C(C(=O)[O-])=C(C[N+]3(C)CCCC3)CS[C@H]12)c1csc(N)n1 |  |  |  |  |  |  | > 300 | > 30 | > 300 | > 30 | > 30 | > 30 | > 300 |
| COC(=O)[C@@H]1CC2=CC(=O)CC[C@]2(C)[C@@]23O[C@@H]2C[C@@]2(C)[C@@H](CC[C@@]24CCC(=O)O4)[C@H]13 [EPLERENONE] |  |  |  |  |  |  | > 30 | > 30 | > 30 | > 10 | > 30 | > 10 | > 30 |
| O=C(CCCCCCC(=O)Nc1ccccc1)NO [VORINOSTAT] |  |  |  |  |  |  | > 30 | > 30 | > 30 | > 10 | > 30 | > 10 | > 30 |
| COC(=O)C1=C(C)NC(C)=C(C(=O)OCC(C)C)C1c1ccccc1[N+](=O)[O-] (centres undefined) [NISOLDIPINE] |  |  |  |  |  |  | 12 | > 10 | 11 | 16 | > 10 | > 10 |  |
| CC(C)NCC(O)COc1ccc(COCCOC(C)C)cc1 (centres undefined) [BISOPROLOL] |  |  |  |  |  |  |  | > 30 |  | > 10 | > 30 | > 10 | > 10 |
| C#C[C@]1(O)CC[C@H]2[C@@H]3CCc4cc(O)ccc4[C@H]3CC[C@@]21C [ETHINYL ESTRADIOL] | > 30 | > 30 | > 10 |  | 0.02 | > 30 |  | > 30 |  | > 10 | 15 | > 10 |  |
| Cc1ccc(C(=O)c2cc(O)c(O)c([N+](=O)[O-])c2)cc1 [TOLCAPONE] |  |  |  |  |  |  |  | > 10 |  | 14.6 | > 10 | > 10 | > 10 |
| COc1cc2c(cc1OC)C(=O)C(CC1CCN(Cc3ccccc3)CC1)C2 (centres undefined) [DONEPEZIL] | > 30 |  |  | > 30 | > 30 | > 30 | > 30 | > 30 |  |  | > 30 | > 10 | > 10 |
